# In patent US7094770B2, “3′-or 2′-hydroxymethyl substituted nucleoside derivatives for treatment of hepatitis virus infections” (Pharmasset, Ltd., priority 2000, dated 2006):
# Where two headings read alike, the source gives them in different places.
# Experiments:
# HIV = settings: literature; cited from earlier work
# [1] = Cytotoxicity in Vero cells; format: cell-based; settings: African green monkey
# Method: (§1) We also perform toxicity assays by measuring the inhibition of uptake of […] dye by treated cells. These assays are done in 96 well plates. After the standard 10 day treatment regimen medium is removed and PBS containing MTS dye added to each well. After a 2 hour incubation the absorbance of the metabolized product is measured at 490 nm.
# [2] = Cytotoxicity in CEM cells; format: cell-based; settings: human
# Method: as §1
# [3] = Cytotoxicity in PBM cells; format: cell-based, human; settings: human
# Method: as §1
# (§2) Human PBM cells from healthy donors, seronegative for HIV-1 and HBV, are isolated by a single-step Ficoll-Hypaque discontinuous gradient centrifugation and propagated as described previously (Schinazi et al., Antimicrobial Agents Chemother., 1990, 34:1061; 1992, 36:2423; 1993, 37:875). Compounds are screened for activity against HIV-1 and cytotoxicity by a protocol reported previously reported by Schinazi, et al. The prototype strain of HIV-1LAI obtained from the Centers for Disease Control and Prevention, Atlanta, Ga., is used as the standard virus for the studies in human PBM cells.
# HBV = assay: Cell culture assay for anti-HBV activity (2.2.15 cells, HBV DNA in medium by Southern blot); format: cell-based, Hepatitis B virus; settings: for EC50: read-out: Anti-HBV EC50; for Antiviral activity (in words): virus not named
# From the text: We follow the protocol described by Korba and Gerin(Antiviral Res., 1992, 19:55) and Pai et al. (Antimicrobial Agents Chemother., 1996, 40:380) which is used widely in the field. The HepG 2 2.2.15 cells contain a stably integrated HBV genome, the transcript from which serves as a template for viral replication. The cells produce virions which are elaborated into the medium. The production of the virion DNA is monitored by analysis of medium by Southern blotting. Drugs which inhibit viral replication reduce the levels of virion DNA in the medium, relative to controls.
# Confluent cells in 24 well tissue culture dishes are treated with test compounds starting at 1 nM and extending logarithmically to 10 μM (1 nM, 3.2, 10 nM, 32, 100 nM, 1 μM, 10 μM […]). Medium is changed […] every 3 days and DNA extracted from the 3, 6, and […] day samples. The virions are concentrated by polyethylene glycol precipitation (equal volume addition of PEG 8000). After cooling on ice the samples are spun and the pellets treated with SDS and Proteinase K followed by Phenol:Chloroform extraction and ethanol precipitation of the DNA. The DNA is analyzed for HBV sequences by Southern hybridization. The probe used for the analysis is a ^32P labeled Eco RI fragment from the HBV clone described by Korba et al. 3TC is used as a positive control compound with known activity against HBV.
# System: The most widely used system for the study of anti-HBV agents is the hepatoma cell culture system with the HBV genome. These cells are designated as the 2.2.15 cells, AD38 cells and AD79 cells. The 2.2.15 cells were generated by the transfection of the human hepatoma cells—HepG2 with HBV DNA. (Sells, et al., Proc. Natl. Acad. Sci. USA 84:1005–1009, 1987) HBV viral replication takes place in these cells. The HBV replication can be monitored intracellularly as well as extracellularly in these cells.
# Assay for Anti-HBV agents: 2.215 cells are grown in multi-well dishes in RPMI medium supplemented with 4% fetal bovine serum. After 3 to 4 days of growing the cells, they are treated with varying concentrations of the test compound(s). The test compounds are dissolved in DMSO or sterile water. Cultures without the addition of the test compounds serve as controls. The addition of the test compound(s) is repeated at 3-day intervals. The medium is changed and replaced with appropriate concentration of the test compound. At the end of the 9-day treatment period, the culture medium is harvested and processed for viral DNA. The viral DNA thus obtained is analyzed by Southern blot analysis. After the Southern transfer, the blot is subjected to hybridization to an HBV specific probe to detect HBV DNA. The hybriodization is carried out overnight. After the hybridization, free probe is removed by washing of the blots. The specific hybridization is visualized by autoradiography. Inhibition produced by the test compound is calculated with reference to the levels of HBV DNA in the control samples.
# HIV-1 = assay: Anti-HIV evaluation in human PBM cells; format: cell-based; settings: for EC50: HIV-1
# From the text: as §2
# [4] = Cytotoxicity in HepG2 cells; format: cell-based; settings: human
# Method: as §1
# [5] = Human immunodeficiency virus 1, PBMC
Compound,Activity against HIV (in words) (HIV),IC50 at 10 day [1],IC50 at 10 day [2],IC50 [3],EC50 (HBV; Hepatitis B virus),EC50 (HIV-1; [5]),EC50 (HBV),Antiviral activity (in words) (HBV),EC50 (HIV-1),Inhibition of HBV replication (in words) (HBV),Inhibition of HIV replication (in words) (HIV-1),IC50 at 10 day [4]
"Nc1ncnc2c1ncn2[C@H]1C[C@H](CO)[C@@H](CO)O1 [2′,3′-dideoxy-3′-hydroxymethyl-adenosine]",good activity,–,–,–,–,–,–,–,–,–,–,–
O=c1ccn(C2OC(CO)C(CO)C2F)c(=O)[nH]1 (stereo not shown) [Compound 13 (Series 2)],–,> 100 µM,> 100 µM,> 100 µM,> 10 µM,> 100 µM,–,–,–,–,–,–
CC1=CC(C2CC(CO)N(C)O2)C(=O)NC1=O (stereo not shown) [Compound 5 (Series 2)],–,–,–,> 100 µM,> 10 µM,> 100 µM,–,–,–,–,–,–
Cc1cn(C2CC(CO)C(CO)O2)c(=O)[nH]c1=O (stereo not shown) [Compound 20 (Series 1)],–,> 100 µM,> 100 µM,> 100 µM,–,–,0.23 µM,moderate activity,0.8 µM,–,–,–
Cc1cn(C2OC(CO)C(N(C)O)[C@@H]2F)c(=O)[nH]c1=O (stereo partly shown) [Compound 55 (Series 2)],–,> 100 µM,> 100 µM,> 100 µM,> 10 µM,68 µM,–,–,–,–,–,–
CC1C(CO)OC(n2ccc(N)nc2=O)C1F (stereo not shown) [Compound 20 (Series 2)],–,> 100 µM,> 100 µM,> 100 µM,> 10 µM,> 100 µM,–,–,–,potent inhibitors,potent inhibitors,–
Cc1cn(C2CC3COCC3O2)c(=O)[nH]c1=O (stereo not shown) [Compound 1 (Series 1)],–,> 100 µM,–,> 100 µM,> 10 µM,> 100 µM,–,–,–,–,–,–
CN1OC(n2ccc(N)nc2=O)CC1CO (stereo not shown) [Compound 39 (Series 2)],–,> 100 µM,> 100 µM,> 100 µM,> 10 µM,> 100 µM,–,–,–,–,–,–
Cc1cn(C2OC(CO)C(CO)C2F)c(=O)nc1N (stereo not shown) [Compound 2 (Series 2)],–,> 100 µM,–,> 100 µM,> 10 µM,> 100 µM,–,–,–,–,–,–
CNC1C(CO)OC(n2ccc(=O)[nH]c2=O)C1F (stereo not shown) [Compound 69 (Series 2)],–,> 100 µM,> 100 µM,> 100 µM,> 10 µM,> 100 µM,–,–,–,–,–,–
Cc1cn(C2CC(CO)=NO2)c(=O)[nH]c1=O (stereo not shown) [Compound 28 (Series 2)],–,> 100 µM,> 100 µM,> 100 µM,> 10 µM,> 100 µM,–,–,–,–,–,–
Nc1ccn(C2OC(CO)C(CO)C2F)c(=O)n1 (stereo not shown) [Compound 7 (Series 2)],–,56 µM,5.1 µM,48.8 µM,0.04 µM,2.6 µM,–,–,–,potent inhibitors,potent inhibitors,> 100 µM
Cc1cn(C2CC(CO)N(C)O2)c(=O)[nH]c1=O (stereo not shown) [Compound 6 (Series 2)],–,> 100 µM,> 100 µM,> 100 µM,> 10 µM,> 100 µM,–,–,–,–,–,–
CCCCN(O)C1C(CO)OC(n2cc(C)c(=O)[nH]c2=O)C1F (stereo not shown) [Compound 71 (Series 2)],–,68.5 µM,30.1 µM,13 µM,< 10 µM,81.4 µM,–,moderate activities,–,–,–,–
Cc1cn(C2CC(CI)C(CO)O2)c(=O)[nH]c1=O (stereo not shown) [Compound 5 (Series 1)],–,> 100 µM,–,> 100 µM,> 10 µM,> 100 µM,–,–,–,–,–,–
